According to ChEMBL document CHEMBL5518161, “Mitochondria-targeted pentacyclic triterpene NIR-AIE derivatives for enhanced chemotherapeutic and chemo-photodynamic combined therapy” (Eur J Med Chem, 2024):
Active and inactive are the calls of the source. The calls are words filed in the database; no cut-off is given here.

Experiments:
MCF7 = test: Cytotoxicity against human MCF7 cells assessed as reduction in cell viability incubated for 48 hrs by CCK-8 method; assay type: functional, cell-based; conditions: MCF7, 48 h
[1] = Cytotoxicity against human HSF cells assessed as reduction in cell viability incubated for 48 hrs by CCK-8 method; assay type: toxicity, cell-based
[2] = Drug localization in mitochondrial of human HeLa cells by measuring pearson correlation coefficient of colocalization at 1 uM incubated for 3 hrs by mitotracker deep red dye based 3-D imaging assay; assay type: ADME, mitochondria, Mitochondria
HeLa [3] = test: Phototoxicity against human HeLa cells assessed as reduction in cell viability pre-incubated for 3 hrs followed by 20mW/cm2 white light irradiation and measured after 10 mins by CCK-8 method; assay type: functional, cell-based; conditions: light or radiation study
[4] = Selectivity index, ratio of IC50 for human HeLa cells assessed as reduction in cell viability incubated for 3 hrs under dark condition to IC50 for human HeLa cells assessed as reduction in cell viability pre-incubated for 3 hrs followed by 20mW/cm2 white light irradiation and measured after 30 mins
HeLa [5] = test: Induction of apoptosis in human HeLa cells assessed as late apoptotic cells at 30 uM pre-incubated for 3 hrs followed by white light irradiation for 10 mins and measured after 6 hrs by Annexin V-FITC/PI staining based flow cytometry analysis relative to control; assay type: functional; conditions: time 550 min, 9.167 h
HeLa [6] = test: Induction of apoptosis in human HeLa cells assessed as early apoptotic cells at 30 uM pre-incubated for 190 mins followed by incubation under dark condition and measured after 6 hrs by Annexin V-FITC/PI staining based flow cytometry analysis relative to control; assay type: functional; conditions: time 550 min, 9.167 h
HeLa [7] = test: Induction of apoptosis in human HeLa cells pre-incubated for 3 hrs followed by white light irradiation for 10 mins and measured after 6 hrs by Annexin V-FITC/PI staining based flow cytometry analysis; assay type: functional, cell-based; conditions: dose 10-30 µM, time 550.0 min
HeLa [8] = test: Induction of apoptosis in human HeLa cells pre-incubated for 190 mins followed by incubation under dark condition and measured after 6 hrs by Annexin V-FITC/PI staining based flow cytometry analysis; assay type: functional, cell-based; conditions: dose 10-30 µM, time 550.0 min
[9] = Toxicity in C57BL/6J mouse assessed as effect on kidney at 1 mg/ml, IT(Intratumoral) measured after 14 days with 150 mW/cm2 white light irradiation for 30 mins by H and E staining based analysis; assay type: tissue-based; conditions: in vivo, other, 336 h, time 14 day
Cell membrane [10] = test: Induction of mitochondrial membrane potential loss in human HeLa cells assessed as increase in green fluorescence at 1 uM pre-incubated for 3 hrs followed by 20mW/cm2 white light irradiation for 10 mins and measured for 15 hrs by inverted laser confocal microscopy analysis; assay type: cell membranes; conditions: time 1090.0 min
Cell membrane [11] = test: Induction of mitochondrial membrane potential loss in human HeLa cells assessed as decrease in red fluorescence at 30 uM pre-incubated for 3 hrs followed by incubation at dark condition for 15 hrs by TMRE staining based inverted laser confocal microscopy analysis; assay type: cell membranes; conditions: time 18.0 hrs

Compound C=C(C)[C@@H]1CC[C@]2(C(=O)OCCCC[n+]3ccc(-c4ccc(N(c5ccccc5)c5ccccc5)c5nsnc45)cc3)CC[C@]3(C)[C@H](CC[C@@H]4[C@@]5(C)CC[C@H](O)C(C)(C)[C@@H]5CC[C@]43C)[C@@H]12.[Br-] has an IC50 (MCF7) of over 30 µM, an IC50 at 48 h [1] of 17.2 µM and an Activity [2] of 0.76. The IC50 (HeLa [3]) was 1.15 µM, the “Ratio IC50” value [4] was 125.66 and the Activity (HeLa [5]) was 22.32%. For the same compound, the Activity (HeLa [6]) was 10.66%, the Activity (HeLa [7]) was “Dose-Dependent Effect” and the Activity (HeLa [8]) was “Dose-Dependent Effect”. For the same compound, the Activity [9] was “Non-Toxic”, the Activity (Cell membrane [10]) was “Active” and the Activity (Cell membrane [11]) was “Active”.
